In patent EP4603105A1, “PHARMACEUTICAL COMPOSITION CONTAINING CYCLIC COMPOUND HAVING SELECTIVE KRAS INHIBITORY EFFECT AGAINST HRAS AND NRAS” (CHUGAI SEIYAKU KABUSHIKI KAISHA, priority 2022, dated 2024):
*1 amine or outer side, *2 acyl side, *3 side chain or, on linkers, in order; H or OH if unused. Where a SMILES comes first, the peptide text is derived from it. Bridges are numbered along the chain shown (N, C = ends). [ ]: non-standard residue; d: D form. The star is where a group is joined. hPhe(3-Cl-4-CF3) = N[C@@H](CCc1ccc(C(F)(F)F)c(Cl)c1)C(=O)O; NPrPhe(4-CF3) = CCCN[C@@H](Cc1ccc(C(F)(F)F)cc1)C(=O)O; X44 = Cc1ccc(C[C@@H](C(=O)[*:2])N(CC2CCC2)[*:1])cc1; NMeGly(cPent) = CN[C@H](C(=O)O)C1CCCC1; NMeD = CN[C@@H](CC(=O)O)C(=O)O; NMeL = CN[C@@H](CC(C)C)C(=O)O; Morpholide = C1CN(*)CCO1; Ac5c = NC1(C(=O)O)CCCC1; NPrGly = CCCNCC(=O)O; Sar = CNCC(=O)O

How the values were obtained:
[1] = target: GDP-bound NRAS wild-type protein (Homo sapiens, UniProt P01111); assay: Binding to NRAS by surface plasmon resonance (SPR), KD and KD ratio to KRAS; settings: ratio of KD for GDP-bound NRAS wild-type protein to KD for KRAS
Sequence of GDP-bound NRAS wild-type protein (P01111 whole entry): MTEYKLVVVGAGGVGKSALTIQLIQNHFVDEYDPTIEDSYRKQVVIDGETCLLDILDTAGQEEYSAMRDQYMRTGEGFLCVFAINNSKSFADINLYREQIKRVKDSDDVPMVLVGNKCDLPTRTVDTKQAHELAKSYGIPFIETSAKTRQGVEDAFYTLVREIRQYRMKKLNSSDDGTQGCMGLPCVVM
In short: (§1)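 GDP-loaded biotinylated Avi-tag RAS proteins (E. coli-expressed) captured on a Biotin CAPture chip at ~100–300 RU; single-cycle kinetics at 30°C, 100 µL/min, 75 s injections of rising compound concentrations. HBS pH 7.4 running buffer with 1 mM DTT, 10 mM MgCl2, 10 µM GDP, 4% DMSO. KD from 1:1 binding fit.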

[2] = system: human lung cancer strain NCI-H441; format: cell-based
In short: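 Readout: […] after the ATP-based reagent. Compound: serial dilutions in dimethyl sulfoxide.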

HRAS wild-type protein = HRAS wild-type protein (Homo sapiens, UniProt P01112); assay: Binding to HRAS by surface plasmon resonance (SPR), KD and KD ratio to KRAS; settings: ratio of KD for HRAS wild-type protein to KD for KRAS
Sequence of HRAS wild-type protein (P01112 whole entry): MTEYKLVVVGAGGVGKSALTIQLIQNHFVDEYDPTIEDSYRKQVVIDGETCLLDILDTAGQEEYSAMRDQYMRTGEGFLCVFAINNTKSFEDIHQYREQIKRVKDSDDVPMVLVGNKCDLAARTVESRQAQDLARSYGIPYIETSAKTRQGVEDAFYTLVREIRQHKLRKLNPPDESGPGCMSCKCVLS
In short: as §1

Structure (SMILES) | IC50 [2] [nM] | NRAS /KRAS [1] | HRAS /KRAS (HRAS wild-type protein)
CCCN1CC(=O)N(C)CC(=O)N(CCC)[C@@H](Cc2ccc(C(F)(F)F)cc2)C(=O)N(C)CC(=O)N[C@@H](CCc2ccc(C(F)(F)F)c(Cl)c2)C(=O)N2CCC[C@H]2C(=O)NC2(CCCC2)C(=O)N(C)[C@@H](C2CCCC2)C(=O)N(C)[C@H](C(=O)N2CCOCC2)CC(=O)N(C)[C@@H](CC(C)C)C(=O)N[C@@H]([C@@H](C)CC)C1=O [PP0253] ([NMeL]I[NPrGly][Sar][NPrPhe(4-CF3)][Sar][hPhe(3-Cl-4-CF3)]P[Ac5c][NMeGly(cPent)][NMeD]-Morpholide; lactam N-11) | 15.1 | B (a compound having 3 or more and less than 10 is denoted as B) | B (a compound having 3 or more and less than 10 is denoted as B)
CCO[C@@H]1C[C@H]2C(=O)NC3(CCC3)C(=O)N(C)[C@@H](C3CCCC3)C(=O)N(C)[C@H](C(=O)N(C)C)CC(=O)N(C)[C@@H](CC3CCCC3)C(=O)N[C@@H]([C@@H](C)CC)C(=O)N(C)CC(=O)N(C)[C@H]3C/C=C\CCN(C3=O)[C@@H](Cc3ccc(C)cc3)C(=O)N(C)CC(=O)N[C@@H](CCc3ccc(C4CC4)c(C)c3)C(=O)N2C1 [PP2685] | 133 | A (a compound having 10 or more and less than 20 is denoted as A) | A (a compound having 10 or more and less than 20 is denoted as A)
CCC[C@H]1C(=O)N[C@@H]([C@@H](C)CC)C(=O)N2CCC[C@H]2C(=O)N(C)[C@H]2C/C=C\CCN(C2=O)[C@@H](Cc2ccc(C)cc2)C(=O)N(C)CC(=O)N[C@@H](CCc2ccc(C(F)(F)F)c(OC)c2)C(=O)N2C[C@H](OCC)C[C@H]2C(=O)N(C)C2(CCC2)C(=O)N(C)[C@@H](C2CCCC2)C(=O)N(C)[C@H](C(=O)N2CCCCC2)CC(=O)N1C [PP3100] | 15 | A (a compound having 10 or more and less than 20 is denoted as A) | B (a compound having 3 or more and less than 10 is denoted as B)
CC[C@H](C)[C@@H]1NC(=O)[C@H](CC(C)C)N(C)C(=O)C[C@@H](C)N(C)C(=O)[C@H](C2CCCC2)N(C)C(=O)C2(CCCC2)NC(=O)[C@@H]2CCCN2C(=O)[C@H](CCc2cc(F)c(C(F)(F)F)c(F)c2)NC(=O)CN(C)C(=O)[C@H](Cc2ccc(C(F)(F)F)cc2)N2CC/C=C\C[C@@H](C2=O)N(C)C(=O)CN(C)C1=O [PP1102] | 83.1 | B (a compound having 3 or more and less than 10 is denoted as B) | A (a compound having 10 or more and less than 20 is denoted as A)

Further molecules by falling IC50 [2], results first:

IC50 [2] [nM] | Structure (SMILES) | NRAS /KRAS [1] | HRAS /KRAS (HRAS wild-type protein)
307 | CCO[C@@H]1C[C@H]2C(=O)NC3(CCC3)C(=O)N(C)[C@@H](C3CCCC3)C(=O)N(C)[C@H](C(=O)N(C)C)CC(=O)N(C)[C@@H](CC)C(=O)N[C@@H]([C@@H](C)CC)C(=O)N3CCSC[C@H]3C(=O)N(C)[C@H]3C/C=C\CCN(C3=O)[C@@H](Cc3ccc(C(F)(F)F)cc3)C(=O)N(C)CC(=O)N[C@@H](CCc3cc(F)c(C(F)(F)F)c(F)c3)C(=O)N2C1 [PP1060] | A (a compound having 10 or more and less than 20 is denoted as A) | A (a compound having 10 or more and less than 20 is denoted as A)
113 | CCO[C@@H]1C[C@H]2C(=O)NC3(CCC3)C(=O)N(C)[C@@H](C3CCCC3)C(=O)N(C)[C@H](C(=O)N3CCOCC3)CC(=O)N(C)[C@@H](Cc3ccccc3F)C(=O)N[C@@H]([C@@H](C)CC)C(=O)N(C)CC(=O)N(C)[C@H]3CCCCCN(C3=O)[C@@H](Cc3ccc(C(F)(F)F)cc3)C(=O)N(C)CC(=O)N[C@@H](CCc3cc(F)c(C(F)(F)F)c(F)c3)C(=O)N2C1 [PP0926] | B (a compound having 3 or more and less than 10 is denoted as B) | B (a compound having 3 or more and less than 10 is denoted as B)
18.2 | CC[C@H](C)[C@@H]1NC(=O)[C@H](CC(C)C)N(C)C(=O)C[C@@H](C(=O)N2CCOCC2)N(C)C(=O)[C@H](C2CCCC2)N(C)C(=O)C2(CCCC2)NC(=O)[C@@H]2CCCN2C(=O)[C@H](CCc2ccc(C(F)(F)F)c(Cl)c2)NC(=O)CN(C)C(=O)[C@H](Cc2ccc(C)cc2)N(CC2CCC2)C(=O)CN(C)C(=O)CN(C)C1=O [PP0095] ([NMeL]I[Sar][Sar][X44][Sar][hPhe(3-Cl-4-CF3)]P[Ac5c][NMeGly(cPent)][NMeD]-Morpholide; lactam N-11) | C (A compound having a KD ratio of 0.1 or more and less than 3 is denoted as C) | C (A compound having a KD ratio of 0.1 or more and less than 3 is denoted as C)
4.1 | CCO[C@@H]1C[C@H]2C(=O)NC3(CC(C)(C)C3)C(=O)N(C)[C@@H](C3CCCC3)C(=O)N(C)[C@H](C(=O)N(C)CC)CC(=O)N(C)[C@H]3CCC/C=C/c4ccc(cc4)C[C@@H](C(=O)N(C)CC(=O)N[C@@H](CCc4ccc(Cl)c(Cl)c4)C(=O)N2C1)N1CC/C=C\C[C@@H](C1=O)N(C)C(=O)CN(C)C(=O)[C@H]([C@@H](C)CC)NC3=O [PP2577] | A (a compound having 10 or more and less than 20 is denoted as A) | A (a compound having 10 or more and less than 20 is denoted as A)
